In US20250296942A1, “Phosphonate-Based Coordination Complexes and Methods of Preparation and Use Thereof” (University of Puerto Rico, priority 2021, published 2025):
Each block holds one compound with its values, some of them ahead of it.

Experiments:
[1] = Release of letrozole from drug-loaded BPBPA-Ca in FaSSGF; type: physicochemical
Protocol: (§1) LET release curve from BPBPA-Ca. The release curve of LET from BPBPA-Ca was determined in FaSSGF. About 100 mL of FaSSGF were placed in a 250-mL beaker and left in constant stirring at 37° C. (150 rpm). To record the first time point (0 h), an aliquot (1 mL) was taken out before adding the drug-loaded BPBPA-Ca. Subsequently, about 20 mg of powdered drug-loaded BPBPA-Ca (experimental) were placed into the FaSSGF solution. After each time point (0, 1, 3, 6, 24, 48, and 72 h), an aliquot (1 mL) was taken out and diluted in a 5 mL volumetric flask. Once the experiment was completed, the absorbance was measured at 238 nm to determine the amount (%) of LET release from the BPBPA-Ca. The release curve of LET (control) in FaSSGF was determined for comparison. This experiment was accomplished in duplicate.
Furthermore, the release of LET from the drug-loaded BPBPA-Ca was investigated in FaSSGF (pH=1.60) at 37° C. The LET released from BPBPA-Ca was quantified by measuring the increase in the LET concentration over time of the supernatant at the lambda max (λmax=238 nm). It was noticed that the drug-loaded BPBPA-Ca reaches a maximum release of LET ([…]) at 24 h (FIG. 91B). […] These findings confirm that BPBPA-Ca can be degraded in acidic conditions and release its cargo (LET) in a controlled and pH-dependent manner.
as §1, with “Release experiment.” for “LET release curve from BPBPA-Ca.”, “performed” for “accomplished”, “duplicate. FIG. 150 depicts the release curve of LET from the BPBPA-Ca channels.” for “duplicate.”

[2] = PBS pH 7.40
[3] = Dissolution of 2,2′-BPBPA-based BPCCs in PBS (2,2′-BPBPA released, 299 nm); type: physicochemical; settings: 37° C., 150 rpm, mean n = 2
Protocol: Dissolution experiment. In a 250 mL beaker was tranfer 100 mL of PBS or FaSSGF.
Subsequently, this solution was allowed to reach 37° C. at 150 rpm. Then, individually ˜10.0 mg of powdered 2,2′-BPBPA-based BPCCs were added to the PBS or FaSSGF solution. Aliquots (1 mL) were taken out at different time points (0, 1, 3, 6, 24, 48, and 72 h) and diluted with PBS or FaSSGF in 5 mL volumetric flasks. An aliquot (1 mL) was taken out before adding the 2,2′-BPBPA-based BPCCs to record the first time point (0 h). The dissolution experiments were performed in duplicate for each 2,2′-BPBPA-based BPCC. The absorbance of the 2,2′-BPBPA released from these materials was assessed at 299 (PBS) and 318 (FaSSGF) nm.
The release of 2,2′-BPBPA from the coordination complexes was assessed in physiological conditions (PBS, pH=7.40 and FaSSGF, pH=1.60). The absorbance of the supernatant was measured at the lambda of maximum absorption to determine the quantity of 2,2′-BPBPA release over time in PBS (λmax=299 nm) and FaSSGF (λmax=318 nm) at 37° C. It was observed that the 2,2′-BPBPA-based BPCCs release from 8 to 13% of 2,2′-BPBPA in neutral conditions (FIG. 160A). […] In acidic conditions, these 2,2′-BPBPA-based BPCCs release from 64 to 90% of 2,2′-BPBPA. The 2,2′-BPBPA-Ca (90%) and 2,2′-BPBPA-Zn (84%) presented the highest release of the ligand contrasted with 2,2′-BPBPA-Mg (64%) in FaSSGF (FIG. 160B). In particular, the 2,2′-BPBPA-Ca collapsed almost completely, indicating the possible ability of this material to degrade once in the acid environment of metastatic cancerous cells and be able to release potential cargo drugs.
Dissolution experiment. In a 250 mL beaker was tranfer 100 mL of PBS. Subsequently, this solution was allowed to reach 37° C. at 150 rpm. Then, individually ˜10.0 mg of powdered 2,2′-BPBPA-based BPCCs were added to the PBS solution. Aliquots (1 mL) were taken out at different time points (0, 1, 3, 6, 24, 48, and 72 h) and diluted with PBS in 5 mL volumetric flasks. An aliquot (1 mL) was taken out before adding the 2,2′-BPBPA-based BPCCs to record the first time point (0 h). The absorbance of the 2,2′-BPBPA released from these materials was assessed at 299 nm. The dissolution experiments were performed in duplicate for each 2,2′-BPBPA-based BPCC. The percentage (%) of 2,2′-BPBPA released in PBS from these complexes is illustrated in Table 30.

LET released (mean) ([1]; FaSSGF pH 1.60, 37 °C, 1 h): 65%
LET released (mean) ([1]; FaSSGF, 3 h): 72%
LET released (mean) ([1]; FaSSGF, 6 h): 75%
LET released (mean) ([1]; FaSSGF, 24 h): 93%
LET released (mean) ([1]; FaSSGF, 48 h): 94%
LET released (mean) ([1]; FaSSGF, 72 h): 94%
Compound: N#Cc1ccc(C(c2ccc(C#N)cc2)n2cncn2)cc1 [LET, letrozole]

Compound: O=P(O)(O)C(O)(Cc1cccnc1)P(=O)(O)O [RISE, Monosodium risedronate hemipentahydrate]
time to reach maximum dissolution [2]: 30 min

% Released (2,2′-BPBPA released in PBS) ([3]; 0 h (aliquot before addition)): 0%
% Released (2,2′-BPBPA released in PBS) ([3]; 1 h): 88%
% Released (2,2′-BPBPA released in PBS) ([3]; 3 h): 90%
% Released (2,2′-BPBPA released in PBS) ([3]; 6 h): 91%
% Released (2,2′-BPBPA released in PBS) ([3]; 24 h): 97%
% Released (2,2′-BPBPA released in PBS) ([3]; 48 h): 97%
% Released (2,2′-BPBPA released in PBS) ([3]; 72 h): 97%
Compound: O=P(O)(O)c1ccc(-c2ccc(P(=O)(O)O)cn2)nc1 [2,2′-BPBPA, 2,2′-bipyridine-5,5′-bisphosphonic acid]
